According to ChEMBL document CHEMBL5608113, “Targeting of CAF-induced therapy resistance in CRC organoid-stroma co-cultures” (2024):

Key:
Format in all cases: functional, Homo sapiens
Conditions in all cases: Homo sapiens, read-out: Cell Viability; for viability at 1 µM: Concentration 1 uM; for viability at 10 µM: Concentration 10 uM
[1] = system: Colon cancer organoid; assay: Targeting of F14 CAF-induced therapy resistance in O14 CRC organoid-stroma co-culture. Cell viability is reported without Gefitinib.
[2] = system: Colon cancer organoid; assay: Targeting of F14 CAF-induced therapy resistance in O14 CRC organoid-stroma co-culture. Cell viability is reported with Gefitinib.
[3] = system: Colon cancer organoid; assay: Targeting of F14 CAF-induced therapy resistance in O23 CRC organoid-stroma co-culture. Cell viability is reported without Gefitinib.
[4] = system: Colon cancer organoid; assay: Targeting of F14 CAF-induced therapy resistance in O23 CRC organoid-stroma co-culture. Cell viability is reported with Gefitinib.
[5] = system: Colon cancer organoid; assay: Targeting of F14 CAF-induced therapy resistance in O23 CRC organoid-stroma co-culture. Cell viability is reported with SN-38.

For `C[C@@H]1CN(c2cc(-c3n[nH]c4ccc(OC5(C)CC5)cc34)ncn2)C[C@H](C)O1` [MLi-2], the viability at 1 µM [1] was 113%, the viability at 1 µM [2] was 27.4% and the viability at 1 µM [3] was 102%. It also gave a viability at 1 µM [4] of 41% and a viability at 1 µM [5] of 46.4%.

`O=S(=O)(NC1CCC(c2cc(F)ccc2F)(S(=O)(=O)c2ccc(Cl)cc2)CC1)C(F)(F)F` (stereo not given) [MRK-560] was tested, and the viability at 1 µM [1] was 73.7%, the viability at 1 µM [2] was 32.8% and the viability at 1 µM [3] was 130%. For the same compound, the viability at 1 µM [4] was 60.6% and the viability at 1 µM [5] was 64.4%.

With `CC(=O)c1c(NS(C)(=O)=O)c2cc(-c3ccc(Cl)cc3)c(-c3ccc(Cl)cc3Cl)nc2n(C)c1=O` [MRL-CB1-NC] the viability at 10 µM [1] was 148%, the viability at 10 µM [2] was 53.2% and the viability at 10 µM [3] was 92.4%. It also gave a viability at 10 µM [4] of 48.2% and a viability at 10 µM [5] of 60.4%.

`Cc1ccc(-c2cnc([C@@]3(O)CC[C@H](C(=O)O)C(C)(C)C3)s2)cc1Nc1cccc(C(F)(F)F)n1` [MRL-SYKi-NC] was tested, and the viability at 10 µM [1] was 110%, the viability at 10 µM [2] was 48.6% and the viability at 10 µM [3] was 139%. The viability at 10 µM [4] was 51.3% and the viability at 10 µM [5] was 73.3%.

For `Cc1cc(Nc2nccc(C)n2)cc(-c2cnc([C@@]3(O)CC[C@H](C(=O)O)C(C)(C)C3)s2)c1` [MRL-SYKi], the viability at 1 µM [1] was 137%, the viability at 1 µM [2] was 32.9% and the viability at 1 µM [3] was 127%. The viability at 1 µM [4] was 63.4% and the viability at 1 µM [5] was 81.4%.

Work on `COc1cc(C(=O)O)ncc1C#Cc1ccccc1NS(=O)(=O)c1cccc2c(N(C)C)ccnc12` [MSC-0516] yielded a viability at 10 µM [1] of 117%, a viability at 10 µM [2] of 45.9% and a viability at 10 µM [3] of 131%. For the same compound, the viability at 10 µM [4] was 47.7% and the viability at 10 µM [5] was 79.4%.

`FC(F)(F)c1ccc2c(c1)nc(-c1cccnc1)n2C1CC1` [MSD-CYP11B2-Negative-control] gave a viability at 10 µM [1] of 65.1%, a viability at 10 µM [2] of 32.7% and a viability at 10 µM [3] of 150%. For the same compound, the viability at 10 µM [4] was 69.7% and the viability at 10 µM [5] was 92.9%.

Compound `CC(C)(O)c1cncc(-c2nc3ccc(F)cc3n2C2CC2)c1` [MSD-CYP11B2] has a viability at 10 µM [1] of 107%, a viability at 10 µM [2] of 39% and a viability at 10 µM [3] of 144%. It also gave a viability at 10 µM [4] of 79.5% and a viability at 10 µM [5] of 94.9%.

In the case of `N#CC1(c2ccccn2)CCN(Cc2cc(C(=O)N3CCCC3)c(=O)n3ccccc23)CC1` [MSD-M1PAM-NC], the viability at 10 µM [1] is reported as 93.4%, the viability at 10 µM [2] is reported as 35.2% and the viability at 10 µM [3] is reported as 136%. The viability at 10 µM [4] was 81.2% and the viability at 10 µM [5] was 63.2%.

`N#CC1(c2ccccn2)CCN(Cc2cc(C(=O)O)c(=O)n3ccccc23)CC1` [MSD-M1PAM] showed a viability at 10 µM [1] of 84.9%, a viability at 10 µM [2] of 37% and a viability at 10 µM [3] of 118%. It also gave a viability at 10 µM [4] of 64.3% and a viability at 10 µM [5] of 71.9%.

Work on `CC(=O)Nc1c(C(C)=O)c(=O)n(C)c2nc(-c3ccc(Cl)cc3Cl)c(-c3ccc(Cl)cc3)cc12` [NAPHTHYRIDINONE] yielded a viability at 10 µM [1] of 119%, a viability at 10 µM [2] of 48.1% and a viability at 10 µM [3] of 109%. For the same compound, the viability at 10 µM [4] was 58.3% and the viability at 10 µM [5] was 81.5%.

For `CO[C@@H](C)c1c(Nc2ccc([C@@H](N(C)C(=O)C3CCS(=O)(=O)CC3)C(F)(F)F)cc2)cnc2cc(Cl)nn12` [NVS-MALT1-C], the viability at 10 µM [1] was 84.5%, the viability at 10 µM [2] was 34.3% and the viability at 10 µM [3] was 119%. It also gave a viability at 10 µM [4] of 70.3% and a viability at 10 µM [5] of 82.8%.

Compound `CO[C@@H](C)c1c(Nc2ccc([C@H](N(C)C(=O)C3CCS(=O)(=O)CC3)C(F)(F)F)cc2)cnc2cc(Cl)nn12` [NVS-MALT1] has a viability at 10 µM [1] of 106%, a viability at 10 µM [2] of 36.8% and a viability at 10 µM [3] of 226%. It also gave a viability at 10 µM [4] of 60.9% and a viability at 10 µM [5] of 89.1%.

`Nc1nc(NCc2ccccc2)nc(-c2ccccc2CO)n1` [Ogerin] gave a viability at 10 µM [1] of 123%, a viability at 10 µM [2] of 26.8% and a viability at 10 µM [3] of 222%. For the same compound, the viability at 10 µM [4] was 71.3% and the viability at 10 µM [5] was 106%.

For `CN(c1ccnc(CNc2nc(Nc3ccc4c(c3)CC(=O)N4)ncc2C(F)(F)F)n1)S(C)(=O)=O` [PF-00911705], the viability at 1 µM [1] was 87%, the viability at 1 µM [2] was 48% and the viability at 1 µM [3] was 87.4%. It also gave a viability at 1 µM [4] of 34.6% and a viability at 1 µM [5] of 73.5%.

For `CC(=O)NCC(=O)N1[C@@H]2CC[C@H]1c1ccc(Nc3ncc(C(F)(F)F)c(NC4CCC4)n3)cc12` [PF-03814735], the viability at 10 µM [1] was 14.8%, the viability at 10 µM [2] was 4.93% and the viability at 10 µM [3] was 33.7%. It also gave a viability at 10 µM [4] of 25.7% and a viability at 10 µM [5] of 48.4%.

`COc1ccc2cc(OCC3(C(=O)O)CN(C(=O)c4ccc(F)cc4)C3)ccc2c1` [PF-04418948] was tested, and the viability at 1 µM [1] was 141%, the viability at 1 µM [2] was 43% and the viability at 1 µM [3] was 142%. For the same compound, the viability at 1 µM [4] was 40.3% and the viability at 1 µM [5] was 81.3%.

`O=C(c1ccc(F)cc1)N1CC(COc2ccc(Br)cc2)(C(=O)O)C1` [PF-04475866] showed a viability at 1 µM [1] of 159%, a viability at 1 µM [2] of 36.4% and a viability at 1 µM [3] of 118%. It also gave a viability at 1 µM [4] of 66.8% and a viability at 1 µM [5] of 85.2%.

`C[C@H](c1ccc(F)cc1)N(Cc1cccc(C(=O)O)c1)C(=O)c1cnc2ccccc2c1` [PF-05105679] gave a viability at 10 µM [1] of 126%, a viability at 10 µM [2] of 61.2% and a viability at 10 µM [3] of 104%. It also gave a viability at 10 µM [4] of 45.6% and a viability at 10 µM [5] of 98.3%.

For `C[C@H](c1ccc(F)cc1)N(Cc1ccc(Cl)c(C(=O)O)c1)C(=O)c1cnc2ccccc2c1` [PF-05257137], the viability at 10 µM [1] was 84%, the viability at 10 µM [2] was 51.5% and the viability at 10 µM [3] was 81.5%. For the same compound, the viability at 10 µM [4] was 41.2% and the viability at 10 µM [5] was 93.8%.

Work on `Cc1noc(C)c1-c1cnc2c(-c3ccc(C(=O)O)cc3)cn([C@@H](C)c3ccccn3)c2c1` [PLX-51107] yielded a viability at 10 µM [1] of 17.8%, a viability at 10 µM [2] of 6.08% and a viability at 10 µM [3] of 109%. It also gave a viability at 10 µM [4] of 78.8% and a viability at 10 µM [5] of 62.8%.

`Cn1cc(CNCC2CCN(c3ncc(C(=O)NO)cn3)CC2)c2ccccc21` [QUISINOSTAT] gave a viability at 10 µM [1] of 0.685%, a viability at 10 µM [2] of 0.22% and a viability at 10 µM [3] of 11.7%. It also gave a viability at 10 µM [4] of 6.71% and a viability at 10 µM [5] of 1.67%.

In the case of `O=C(CCCCCCNC(=O)c1cnc(N(c2ccccc2)c2ccccc2)nc1)NO` [RICOLINOSTAT], the viability at 10 µM [1] is reported as 141%, the viability at 10 µM [2] is reported as 83% and the viability at 10 µM [3] is reported as 108%. For the same compound, the viability at 10 µM [4] was 81.3% and the viability at 10 µM [5] was 43.7%.

For `C=CC(=O)Nc1ccc2[nH]c(=O)n(C3CCN(Cc4ccc(-c5ccc6c(c5)NC(=O)CO6)cc4)CC3)c2c1` [RL2578], the viability at 10 µM [1] was 101%, the viability at 10 µM [2] was 33.2% and the viability at 10 µM [3] was 106%. It also gave a viability at 10 µM [4] of 55.4% and a viability at 10 µM [5] of 65.6%.

For `Cn1cnc2c(F)c(Nc3ccc(Br)cc3Cl)c(C(=O)NOCCO)cc21` [SELUMETINIB], the viability at 10 µM [1] was 51.6%, the viability at 10 µM [2] was 22.1% and the viability at 10 µM [3] was 62.9%. It also gave a viability at 10 µM [4] of 27.6% and a viability at 10 µM [5] of 48.4%.

For `CS(=O)(=O)N1CCCC(NC(=O)[C@H](CCC2CCCCC2)NC(=O)c2ccc(CNC(=O)c3cnc4ccccn34)cc2)C1` (stereo not given in full) [SR-302], the viability at 1 µM [1] was 101%, the viability at 1 µM [2] was 37.1% and the viability at 1 µM [3] was 126%. The viability at 1 µM [4] was 69.8% and the viability at 1 µM [5] was 54.1%.

With `Nc1c(C(=O)NCc2ccc(C(=O)NCCCC3CCCCC3)cc2)cnn1-c1ccccc1` [SR-318] the viability at 1 µM [1] was 85%, the viability at 1 µM [2] was 41.3% and the viability at 1 µM [3] was 166%. For the same compound, the viability at 1 µM [4] was 58.8% and the viability at 1 µM [5] was 77.6%.

`O=C(NCCCC1CCCCC1)c1ccc(CNC(=O)c2cnn(-c3ccccc3)c2C(F)(F)F)cc1` [SR-321] gave a viability at 1 µM [1] of 92%, a viability at 1 µM [2] of 23.5% and a viability at 1 µM [3] of 138%. It also gave a viability at 1 µM [4] of 48.4% and a viability at 1 µM [5] of 78%.
